Laboratory results published in the supplement of paper PMC10307832.

Legend:
Assay in all cases: relative viability (nuclei count vs DMSO), 5 days (fraction); higher = more cells survive
[1] = compound: C1CSC2=C(C(=O)N1)SC3=C2C=C(C=C3)O [kb NB 142-70] + Cc1nc(Nc2ncc(C(=O)Nc3c(C)cccc3Cl)s2)cc(N2CCN(CCO)CC2)n1 [Dasatinib] (partner 0.075 µM)
How it was run: (§1)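 One day after seeding in 1536-well plates, lung cancer cell lines were dosed by pin tool. Dosing was either single-drug or a fixed anchor-drug dose plus five library-drug doses (not always all listed) in √10 steps. After 5 days, nuclei were stained in one fix-and-stain step and counted on 4× images, and relative viability is the nuclei count of treated wells over that of vehicle wells, given as the median of duplicate plates.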

[2] = compound: C1CSC2=C(C(=O)N1)SC3=C2C=C(C=C3)O [kb NB 142-70] + O=C(c1cc(Cc2n[nH]c(=O)c3ccccc23)ccc1F)N1CCN(C(=O)C2CC2)CC1 [Olaparib] (partner 8 µM)
How it was run: as §1

[3] = compound: NCC(=O)Nc1ccc(-n2nc(C(F)(F)F)cc2-c2ccc3c(ccc4ccccc43)c2)cc1 + CS(=O)(=O)N1CCN(Cc2cc3nc(-c4cccc5[nH]ncc45)nc(N4CCOCC4)c3s2)CC1 [Pictilisib] (partner 1 µM)
How it was run: as §1

[4] = compound: NCC(=O)Nc1ccc(-n2nc(C(F)(F)F)cc2-c2ccc3c(ccc4ccccc43)c2)cc1 + O=C(c1cc(Cc2n[nH]c(=O)c3ccccc23)ccc1F)N1CCN(C(=O)C2CC2)CC1 [Olaparib] (partner 8 µM)
How it was run: as §1

Cell Line UMC-11 has a relative viability ([1]; first compound 0.1 µM) of 0.438, a relative viability ([1]; first compound 1 µM) of 0.464 and a relative viability ([1]; first compound 3.162 µM) of 0.318. For the same cell line, the relative viability ([2]; first compound 0.1 µM) was 0.309, the relative viability ([2]; first compound 1 µM) was 0.315 and the relative viability ([2]; first compound 3.162 µM) was 0.199. For the same cell line, the relative viability ([3]; first compound 0.02 µM) was 0.835, the relative viability ([3]; first compound 0.06325 µM) was 0.866 and the relative viability ([3]; first compound 0.2 µM) was 0.858. For the same cell line, the relative viability ([3]; first compound 0.6325 µM) was 0.732, the relative viability ([3]; first compound 2 µM) was 0.828 and the relative viability ([4]; first compound 0.02 µM) was 0.307. For the same cell line, the relative viability ([4]; first compound 0.06325 µM) was 0.355, the relative viability ([4]; first compound 0.2 µM) was 0.537 and the relative viability ([4]; first compound 0.6325 µM) was 0.354. For the same cell line, the relative viability ([4]; first compound 2 µM) was 0.377.
